Source: patent US4111955A, “N-Trihalomethanesulfenyl carbamoyloximino di-sulfur heterocyclic compounds” (priority 1976, dated 1978)

Key:
Format in all cases: in vivo
[1] = system: house flies (Musca domestica, L.); assay: Fly Bait Test; set-up: key to pesticidal activity rating, Housefly: A: excellent control; B: partial control; C: no control; settings: 500 parts per million, 24 hours
Protocol: Four to 6 day old adult house flies (Musca domestica, L.), reared according to the specifications of the Chemical Specialities Manufacturing Association (Blue Book, McNair-Dorland Co., N.Y. 1954; pages 243-244, 261) under controlled conditions of 80°±5° F. and 50±5 percent relative humidity, were the test insects. The flies were immobilized by anesthetizing with carbon dioxide and twenty five immobilized individuals, males and females, were transferred to a cage consisting of a standard food strainer about 5 inches in diameter which was inverted over a wrapping-paper-covered surface. The test compounds were formulated by diluting the stock suspension with a 10 percent (by weight) sugar solution to give a suspension containing 500 parts of test compound per million parts of final formulation, by weight. Ten milliliters of the test formulation were added to a souffle cup containing a 1-inch square of an absorbent cotton pad. This bait cup was introduced and centered on the blotting paper under the food strainer prior to admitting the anesthetized flies. The caged flies were allowed to feed on the bait for 24 hours, at a temperature of 80°±5° F. and the relative humidity of 50±5 percent.
(§1) In these tests the pesticidal activity of the compounds against aphid, mite, Southern Armyworm, Bean Beetle and House fly was rated as follows:
(§2) The LD50 values shown in the above Table II were determined by testing the compositions over an appropriate concentration range obtained by serial dilution of the stock suspension with water. The percent kill was plotted on log-probit graph paper versus parts per million concentration, and the LD50 read from an eye-fitted line drawn through the resultant points.

[2] = system: Mexican bean beetle (Epilachna varivestis, Muls.); assay: Mexican Bean Beetle Leaf Spray Test; set-up: key to pesticidal activity rating, Bean beetle: A: excellent control; B: partial control; C: no control; settings: leaf spray, 500 parts per million, 3 days
Protocol: Fourth instar larvae of the Mexican bean beetle (Epilachna varivestis, Muls.), reared on Tendergreen bean plants at a temperature of 80°±5° F. and 50±5 percent relative humidity, were the test insects.
The test compounds were formulated by diluting the stock suspension with water to give a suspension containing 500 parts of test compound per million parts of final formulation. Potted Tendergreen bean plants of standard height and age were placed on a revolving turntable and sprayed with 100-110 milliliters of test compound formulation by use of a DeVilbiss spray gun set at 10 psig air pressure. This application, which lasted 25 seconds, was sufficient to wet plants to run-off. As a control, 100-110 milliliters of a water-acetone-emulsifier solution containing no test compound were also sprayed on infested plants. When dry, the paired leaves were separated and each was placed in a 9 centimeter Petri dish lined with moistened filter paper. Five randomly selected larvae were introduced into each dish, and the dishes were closed. The closed dishes were labeled and held at a temperature of 80°±5° F. for 3 days. Although the larvae could easily consume the leaf within 24 to 48 hours, no more food was added. Larvae which were unable to move the length of the body, even upon stimulation, were considered dead.
as §1, §2

[3] = system: two-spotted mite (Tetranychus urticae Koch); assay: Mite Foliage Spray Test; set-up: key to pesticidal activity rating, Mite: A: excellent control; B: partial control; C: no control; settings: 500 parts per million, 6 days
Protocol: Adults and nymphal stages of the two-spotted mite (Tetranychus urticae Koch), reared on Tendergreen bean plants at 80±5 percent relative humidity, were the test organisms. Infested leaves from a stock culture were placed on the primary leaves of two bean plants 6 to 8 inches in height, growing in a 21/2 inch clay pot. 150-200 Mites, a sufficient number for testing, transferred from the excised leaves to the fresh plants in a period of 24 hours. Following the 24 hour transfer period, the excised leaves were removed from the infested plants. The test compounds were formulated by diluting the stock suspension with water to give a suspension containing 500 parts of test compound per million parts of final formulation. The potted plants (one pot per compound) were placed on a revolving turntable and sprayed with 100-110 milliliters of test compound formulation by use of a DeVilbiss spray gun set at 40 psig. air pressure. This application, which lasted 25 seconds, was sufficient to wet the plants to run-off. As a control, 100-110 milliliters of a water solution containing acetone and emulsifier in the same concentrations as the test compound formulation, but containing no test compound, were also sprayed on infested plants. The sprayed plants were held at 80±5 percent relative humidity for 6 days, after which a mortality count of motile forms was made. Microscopic examination for motile forms was made on the leaves of the test plants. Any individual which was capable of locomotion upon prodding was considered living.
as §1, §2

[4] = system: bean aphid (Aphis fabae Scop.); assay: Bean Aphid Foliage Spray Test; set-up: key to pesticidal activity rating, Aphid: A: excellent control; B: partial control; C: no control; settings: 500 parts per million, 24 hour
Protocol: Adults and nymphal stages of the bean aphid (Aphis fabae Scop.) reared on potted dwarf nasturtium plants at 65°-70° F. and 50-70 percent relative humidity, constituted the test insects. For testing purposes, the number of aphids per pot was standardized to 100-150 by trimming plants containing excess aphids.
The test compounds were formulated by diluting the stock suspension with water to give a suspension containing 500 parts of test compound per million parts of final formulation.
The potted plants (one pot per compound tested) infested with 100-150 aphids, were placed on a revolving turntable and sprayed with 100-110 milliliters of test compound formulation by use of a DeVilbiss spray gun set at 40 psig. air pressure. This application, which lasted 25 seconds, was sufficient to wet the plants to run-off. As a control, 100-110 milliliters of a water-acetone-emulsifier solution containing no test compound were also sprayed on infested plants. After spraying, the pots were placed on their sides on a sheet of white standard mimeograph paper which had been previously ruled to facilitate counting. Temperature and humidity in the test room during the 24 hour holding period were 65°-70° F. and 50-70 percent, respectively. Aphids which fell onto the paper and were unable to remain standing after being uprighted were considered dead. Aphids remaining on the plants were observed closely for movement and those which were unable to move the length of the body upon stimulation by prodding were considered dead. Percent mortality was recorded for various concentration levels.
as §1, §2

[5] = system: southern armyworm (Prodenia eridania, (Cram.)); assay: Southern Armyworm Leaf Spray Test; set-up: key to pesticidal activity rating, Armyworm: A: excellent control; B: partial control; C: no control; settings: 500 parts per million, 3 days
Protocol: Larvae of the southern armyworm (Prodenia eridania, (Cram.)), reared on Tendergreen bean plants at a temperature of 80°±5° F. and a relative humidity of 50±5 percent, constituted the test insects.
The test compounds were formulated by diluting the stock suspension with water to give a suspension containing 500 parts of test compound per million parts of final formulation. Potted Tendergreen bean plants of standard height and age were placed on a revolving turntable and sprayed with 100-110 milliliters of test compound formulation by use of a DeVilbiss spray gun set at 10 psig air pressure. This application, which lasted 25 seconds, was sufficient to wet plants to run-off. As a control, 100-110 milliliters of a water-acetone-emulsifier solution containing no test compound were also sprayed on infested plants. When dry, the paired leaves were separated and each one was placed in a 9 centimeter Petri dish lined with moistened filter paper. Five randomly selected larvae were introduced into each dish and the dishes were closed. The closed dishes were labeled and held at 80°-85° F. for 3 days. Although the larvae could easily consume the whole leaf within 24 hours, no more food was added. Larvae which were unable to move the length of the body, even upon stimulation by prodding, were considered dead. Percent mortality was recorded for various concentration levels.
as §1, §2

[6] = Peroral toxicity to mammals (rat); settings: in vivo, po; rat, peroral, Table I; read-out: Rat P.O. LD50
Protocol: Certain of these compositions were also evaluated to determine their peroral toxicity to mammals. The animal selected for this experiment was the rat. The test results obtained are expressed in terms of the number of milligrams of composition per kilogram of weight of the animal required to achieve a mortality rate of 50 percent (LD50).

Compound	pesticidal activity rating, Housefly [1]	pesticidal activity rating, Bean beetle [2]	pesticidal activity rating, Mite [3]	pesticidal activity rating, Aphid [4]	pesticidal activity rating, Armyworm [5]	LD50 [6] [mg/kg]
CN(SC(Cl)(Cl)Cl)C(=O)ON=C1CSC(C)(C)S1	A	A	A	A	C	
CN(SC(Cl)(Cl)Cl)C(=O)ON=C1SCCSC1(C)C	B	A	A	A	A	7.07
CCCC1SCCSC1=NOC(=O)N(C)SC(Cl)(Cl)Cl (centres unmarked)	A	A	C	B	C	
CC1SCCSC1=NOC(=O)N(C)SC(Cl)(Cl)Cl (centres unmarked)	A	A	A	A	A	
CN(SC(Cl)(Cl)Cl)C(=O)ON=C1C[S+]([O-])CCS1 (centres unmarked) [2-O-[(N-METHYL-N-TRICHLOROMETHANESULFENYL) CARBAMOYLOXIMINO]-1,4-DITHIANE-4-OXIDE]	A	A	A	A	A	28.3
CN(SC(F)(F)F)C(=O)ON=C1CSCCS1 [2-O-[(N-METHYL-N-TRIFLUOROMETHANESULFENYL)-CARBAMOYLOXIMINO]-1,4-DITHIANE]	A	A	A	A	A	
CN(SC(Cl)(Cl)Cl)C(=O)ON=C1CSCS1 [4-[(N-METHYL-N-TRICHLOROMETHANESULFENYL)-CARBAMOYLOXIMINO]-1,3-DITHIOLANE]	A	A	A	A	A	75
CNC(=O)ON=C1CSCS1 [drawing 5 --NHCH3, reference compound]	A	A	A	A	A	13
CNC(=O)ON=C1CSC(C)(C)S1 [drawing 6 --NHCH3, reference compound]	A	A	A	A	B	
CNC(=O)ON=C1SCCSC1(C)C [drawing 7 --NHCH3, reference compound]	A	A	A	A	A	0.3
CCCC1SCCSC1=NOC(=O)NC (centres unmarked) [drawing 9 --NHCH3, reference compound]	A	A	C	A	C	
CNC(=O)ON=C1C[S+]([O-])CCS1 (centres unmarked) [drawing 10 --NHCH3, reference compound]	A	A	A	C	A	12.3
CNC(=O)ON=C1SCCSC1C (centres unmarked) [drawing 11 --NHCH3, reference compound]	A	A	A	A	A	
